Measured values taken from ChEMBL document CHEMBL3774360, “Potent multitarget FAAH-COX inhibitors: Design and structure-activity relationship studies” (Eur J Med Chem, 2016).

Key:
[1] = target: Prostacyclin receptor (Homo sapiens) (UniProt P43119); experiment: Binding affinity to human IP receptor at 10 uM by radioligand binding assay
Homo sapiens [2] = organism: Homo sapiens; experiment: Binding affinity to PCP receptor (unknown origin) at 10 uM by radioligand binding assay
[3] = target: Protein kinase C alpha type (Homo sapiens) (UniProt P17252); experiment: Binding affinity to human PKC-alpha at 10 uM
[4] = target: Adrenergic receptor alpha-2 (Homo sapiens) (UniProt P08913+P18825+P18089); experiment: Binding affinity to alpha-2 adrenergic receptor (unknown origin) at 10 uM by radioligand binding assay
[5] = target: Nociceptin receptor (Homo sapiens) (UniProt P41146); experiment: Binding affinity to human NOP receptor at 10 uM by radioligand binding assay
[6] = target: Peroxisome proliferator-activated receptor gamma (Homo sapiens) (UniProt P37231); experiment: Binding affinity to human PPAR-gamma receptor at 10 uM by radioligand binding assay
[7] = target: Glutamate [NMDA] receptor (Homo sapiens) (UniProt Q05586+Q12879+Q13224+O15399+O60391+Q14957+Q8TCU5); experiment: Binding affinity to NMDA receptor (unknown origin) at 10 uM by radioligand binding assay
[8] = target: Sodium-dependent serotonin transporter (Homo sapiens) (UniProt P31645); experiment: Binding affinity to human 5-HT transporter at 10 uM by radioligand binding assay
[9] = target: Prostaglandin E2 receptor EP4 subtype (Homo sapiens) (UniProt P35408); experiment: Binding affinity to human EP4 receptor at 10 uM by radioligand binding assay
Prostaglandin E2 receptor EP4 subtype (Homo sapiens), sequence (P35408 whole entry): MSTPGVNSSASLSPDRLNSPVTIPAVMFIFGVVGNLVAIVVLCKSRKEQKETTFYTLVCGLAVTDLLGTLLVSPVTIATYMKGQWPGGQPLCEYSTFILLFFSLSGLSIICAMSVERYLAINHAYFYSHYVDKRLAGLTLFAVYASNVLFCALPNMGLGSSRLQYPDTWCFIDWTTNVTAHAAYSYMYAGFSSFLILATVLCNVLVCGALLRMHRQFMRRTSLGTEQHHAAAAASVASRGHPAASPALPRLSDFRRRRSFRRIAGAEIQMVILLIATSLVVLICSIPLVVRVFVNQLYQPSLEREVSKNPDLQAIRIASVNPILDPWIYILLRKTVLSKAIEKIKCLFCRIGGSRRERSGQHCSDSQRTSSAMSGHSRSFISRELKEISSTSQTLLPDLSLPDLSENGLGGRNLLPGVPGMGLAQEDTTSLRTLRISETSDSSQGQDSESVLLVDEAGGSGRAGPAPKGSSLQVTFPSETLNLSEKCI

[10] = target: cGMP-dependent 3',5'-cyclic phosphodiesterase (Homo sapiens) (UniProt O00408); experiment: Binding affinity to human PDE2A1 at 10 uM
[11] = target: Sodium-dependent noradrenaline transporter (Homo sapiens) (UniProt P23975); experiment: Binding affinity to human norepinephrine transporter at 10 uM by radioligand binding assay
[12] = target: Sodium-dependent dopamine transporter (Homo sapiens) (UniProt Q01959); experiment: Binding affinity to human dopamine transporter at 10 uM by radioligand binding assay
Sodium-dependent dopamine transporter (Homo sapiens), sequence (Q01959 whole entry): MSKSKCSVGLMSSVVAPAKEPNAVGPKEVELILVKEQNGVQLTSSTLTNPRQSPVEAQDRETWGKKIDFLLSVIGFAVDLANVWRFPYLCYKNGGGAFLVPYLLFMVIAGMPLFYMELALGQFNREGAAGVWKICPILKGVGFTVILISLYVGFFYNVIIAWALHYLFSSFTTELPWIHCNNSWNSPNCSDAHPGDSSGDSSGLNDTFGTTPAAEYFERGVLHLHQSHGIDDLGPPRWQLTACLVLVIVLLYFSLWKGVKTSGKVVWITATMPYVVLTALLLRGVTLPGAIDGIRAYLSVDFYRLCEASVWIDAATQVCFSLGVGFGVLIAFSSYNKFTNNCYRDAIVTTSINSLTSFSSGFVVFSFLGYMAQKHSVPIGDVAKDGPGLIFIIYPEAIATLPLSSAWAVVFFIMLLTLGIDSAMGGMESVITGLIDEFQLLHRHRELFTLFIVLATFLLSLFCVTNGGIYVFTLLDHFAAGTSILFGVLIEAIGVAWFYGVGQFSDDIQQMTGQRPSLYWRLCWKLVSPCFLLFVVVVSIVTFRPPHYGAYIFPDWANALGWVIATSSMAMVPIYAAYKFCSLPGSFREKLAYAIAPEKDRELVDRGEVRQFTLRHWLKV

[13] = target: Thromboxane A2 receptor (Homo sapiens) (UniProt P21731); experiment: Agonist activity against human TP receptor at 10 uM
Thromboxane A2 receptor (Homo sapiens), sequence (P21731 whole entry): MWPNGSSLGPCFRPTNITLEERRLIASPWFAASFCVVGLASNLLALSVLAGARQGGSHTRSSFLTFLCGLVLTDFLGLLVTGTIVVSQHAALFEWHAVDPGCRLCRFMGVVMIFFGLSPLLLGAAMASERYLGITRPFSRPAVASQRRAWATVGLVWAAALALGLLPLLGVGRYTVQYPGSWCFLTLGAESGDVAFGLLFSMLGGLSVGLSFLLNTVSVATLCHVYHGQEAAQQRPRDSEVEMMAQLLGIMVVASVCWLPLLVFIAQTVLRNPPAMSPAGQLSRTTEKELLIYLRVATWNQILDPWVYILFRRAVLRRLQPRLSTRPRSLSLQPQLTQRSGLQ

[14] = target: High affinity choline transporter 1 (Homo sapiens) (UniProt Q9GZV3); experiment: Binding affinity to human CHT1 transporter at 10 uM by radioligand binding assay
[15] = target: Prostaglandin E2 receptor EP1 subtype (Homo sapiens) (UniProt P34995); experiment: Binding affinity to human EP1 receptor at 10 uM by radioligand binding assay
Homo sapiens [16] = organism: Homo sapiens; experiment: Binding affinity to kainate receptor (unknown origin) at 10 uM by radioligand binding assay
[17] = target: Cysteinyl leukotriene receptor 1 (Homo sapiens) (UniProt Q9Y271); experiment: Binding affinity to human cysteinyl leukotriene receptor 1 at 10 uM by radioligand binding assay
Cysteinyl leukotriene receptor 1 (Homo sapiens), sequence (Q9Y271 whole entry): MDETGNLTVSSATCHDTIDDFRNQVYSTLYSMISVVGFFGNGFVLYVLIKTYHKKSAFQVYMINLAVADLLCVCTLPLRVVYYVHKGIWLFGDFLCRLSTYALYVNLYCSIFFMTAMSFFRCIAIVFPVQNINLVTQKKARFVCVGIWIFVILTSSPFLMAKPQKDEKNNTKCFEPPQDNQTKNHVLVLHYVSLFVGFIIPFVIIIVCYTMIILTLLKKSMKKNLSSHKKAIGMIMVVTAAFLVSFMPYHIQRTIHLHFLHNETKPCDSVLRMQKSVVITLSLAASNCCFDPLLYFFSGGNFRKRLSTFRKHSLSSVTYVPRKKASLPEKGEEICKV

Homo sapiens [18] = organism: Homo sapiens; experiment: Binding affinity to small conductance calcium-activated potassium channel (unknown origin) at 10 uM by radioligand binding assay
Homo sapiens [19] = organism: Homo sapiens; experiment: Binding affinity to P2X receptor (unknown origin) at 10 uM by radioligand binding assay
[20] = target: Nitric oxide synthase, inducible (Homo sapiens) (UniProt P35228); experiment: Binding affinity to inducible NOS (unknown origin) at 10 uM
Nitric oxide synthase, inducible (Homo sapiens), sequence (P35228 whole entry): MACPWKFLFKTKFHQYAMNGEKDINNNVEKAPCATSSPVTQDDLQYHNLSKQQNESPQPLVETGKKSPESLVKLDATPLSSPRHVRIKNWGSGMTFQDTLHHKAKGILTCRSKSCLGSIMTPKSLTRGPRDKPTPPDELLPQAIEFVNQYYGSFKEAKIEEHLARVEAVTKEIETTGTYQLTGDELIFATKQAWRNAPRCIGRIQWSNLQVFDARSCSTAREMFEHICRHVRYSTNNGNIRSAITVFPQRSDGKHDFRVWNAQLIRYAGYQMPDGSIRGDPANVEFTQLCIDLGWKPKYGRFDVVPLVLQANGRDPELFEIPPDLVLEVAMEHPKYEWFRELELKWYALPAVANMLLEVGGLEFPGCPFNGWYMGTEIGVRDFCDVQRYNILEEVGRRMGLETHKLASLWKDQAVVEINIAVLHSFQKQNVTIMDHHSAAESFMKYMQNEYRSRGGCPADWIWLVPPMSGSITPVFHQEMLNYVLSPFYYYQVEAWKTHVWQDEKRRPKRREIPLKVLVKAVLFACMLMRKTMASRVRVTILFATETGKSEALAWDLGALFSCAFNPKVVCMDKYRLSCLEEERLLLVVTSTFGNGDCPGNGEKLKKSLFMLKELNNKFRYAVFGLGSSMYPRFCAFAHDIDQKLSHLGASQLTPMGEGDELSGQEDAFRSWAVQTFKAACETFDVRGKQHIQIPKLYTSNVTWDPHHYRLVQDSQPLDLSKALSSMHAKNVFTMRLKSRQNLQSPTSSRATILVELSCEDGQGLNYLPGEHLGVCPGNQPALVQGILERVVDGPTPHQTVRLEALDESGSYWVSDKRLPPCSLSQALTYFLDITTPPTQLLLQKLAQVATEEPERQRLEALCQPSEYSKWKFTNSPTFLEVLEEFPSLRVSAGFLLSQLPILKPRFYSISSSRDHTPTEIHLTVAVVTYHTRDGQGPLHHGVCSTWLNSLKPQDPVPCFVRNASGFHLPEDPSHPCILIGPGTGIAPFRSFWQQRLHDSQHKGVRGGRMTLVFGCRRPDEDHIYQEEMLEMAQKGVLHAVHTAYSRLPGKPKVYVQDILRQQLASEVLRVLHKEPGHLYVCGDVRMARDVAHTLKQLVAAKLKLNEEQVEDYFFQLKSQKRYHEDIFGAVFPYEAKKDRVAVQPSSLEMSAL

[21] = target: D(2) dopamine receptor (Homo sapiens) (UniProt P14416); experiment: Binding affinity to human dopamine D2S receptor at 10 uM by radioligand binding assay
[22] = target: Adenosine receptor A1 (Homo sapiens) (UniProt P30542); experiment: Binding affinity to human adenosine A1 receptor at 10 uM by radioligand binding assay
[23] = target: D(1A) dopamine receptor (Homo sapiens) (UniProt P21728); experiment: Binding affinity to human dopamine D1 receptor at 10 uM by radioligand binding assay
D(1A) dopamine receptor (Homo sapiens), sequence (P21728 whole entry): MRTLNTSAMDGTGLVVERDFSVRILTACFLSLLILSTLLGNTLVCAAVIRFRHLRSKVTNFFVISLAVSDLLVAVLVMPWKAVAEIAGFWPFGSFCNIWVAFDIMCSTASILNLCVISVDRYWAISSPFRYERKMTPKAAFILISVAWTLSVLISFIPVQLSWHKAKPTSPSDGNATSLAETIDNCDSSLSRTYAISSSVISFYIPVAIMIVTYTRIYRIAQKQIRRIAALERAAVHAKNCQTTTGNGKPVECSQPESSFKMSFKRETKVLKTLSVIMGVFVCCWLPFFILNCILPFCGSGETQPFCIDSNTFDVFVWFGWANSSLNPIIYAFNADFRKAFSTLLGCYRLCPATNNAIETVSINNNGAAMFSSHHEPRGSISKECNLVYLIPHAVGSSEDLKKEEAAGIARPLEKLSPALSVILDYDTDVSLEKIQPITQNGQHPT

[24] = target: Tyrosine 3-monooxygenase (Homo sapiens) (UniProt P07101); experiment: Binding affinity to tyrosine hydroxylase (unknown origin) at 10 uM
[25] = target: Histone deacetylase 4 (Homo sapiens) (UniProt P56524); experiment: Binding affinity to human HDAC4 at 10 uM
[26] = target: Transmembrane domain-containing protein TMIGD3 (Homo sapiens) (UniProt P0DMS9); experiment: Binding affinity to human adenosine A3 receptor at 10 uM by radioligand binding assay
[27] = target: Neuronal acetylcholine receptor; alpha4/beta2 (Homo sapiens) (UniProt P17787+P43681); experiment: Binding affinity to human N neuronal alpha4beta2 receptor at 10 uM by radioligand binding assay; type: protein-complex assay
[28] = target: Melanocortin receptor 4 (Homo sapiens) (UniProt P32245); experiment: Binding affinity to human melanocortin-4 receptor at 10 uM by radioligand binding assay
Melanocortin receptor 4 (Homo sapiens), sequence (P32245 whole entry): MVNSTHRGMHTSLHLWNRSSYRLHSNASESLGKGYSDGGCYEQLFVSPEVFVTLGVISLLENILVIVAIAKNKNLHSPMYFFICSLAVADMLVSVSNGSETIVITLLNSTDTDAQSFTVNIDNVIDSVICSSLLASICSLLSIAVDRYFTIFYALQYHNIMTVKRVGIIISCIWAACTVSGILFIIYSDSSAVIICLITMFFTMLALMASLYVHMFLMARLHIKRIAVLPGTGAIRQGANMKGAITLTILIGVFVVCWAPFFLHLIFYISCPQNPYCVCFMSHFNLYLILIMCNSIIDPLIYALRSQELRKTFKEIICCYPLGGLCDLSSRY

Homo sapiens [29] = organism: Homo sapiens; experiment: Binding affinity to central-type benzodiazepine receptor (unknown origin) at 10 uM by radioligand binding assay
[30] = target: Cannabinoid receptor 1 (Homo sapiens) (UniProt P21554); experiment: Binding affinity to human cannabinoid receptor 1 at 10 uM by radioligand binding assay
[31] = target: Leukotriene B4 receptor (Homo sapiens) (UniProt Q9NPC1+Q15722); experiment: Binding affinity to human leukotriene B4 receptor at 10 uM by radioligand binding assay; type: protein assay
Homo sapiens [32] = organism: Homo sapiens; experiment: Binding affinity to neuropeptide Y receptor (unknown origin) at 10 uM by radioligand binding assay
[33] = target: Polyunsaturated fatty acid 5-lipoxygenase (Homo sapiens) (UniProt P09917); experiment: Binding affinity to human 5-lipoxygenase at 10 uM
Polyunsaturated fatty acid 5-lipoxygenase (Homo sapiens), sequence (P09917 whole entry): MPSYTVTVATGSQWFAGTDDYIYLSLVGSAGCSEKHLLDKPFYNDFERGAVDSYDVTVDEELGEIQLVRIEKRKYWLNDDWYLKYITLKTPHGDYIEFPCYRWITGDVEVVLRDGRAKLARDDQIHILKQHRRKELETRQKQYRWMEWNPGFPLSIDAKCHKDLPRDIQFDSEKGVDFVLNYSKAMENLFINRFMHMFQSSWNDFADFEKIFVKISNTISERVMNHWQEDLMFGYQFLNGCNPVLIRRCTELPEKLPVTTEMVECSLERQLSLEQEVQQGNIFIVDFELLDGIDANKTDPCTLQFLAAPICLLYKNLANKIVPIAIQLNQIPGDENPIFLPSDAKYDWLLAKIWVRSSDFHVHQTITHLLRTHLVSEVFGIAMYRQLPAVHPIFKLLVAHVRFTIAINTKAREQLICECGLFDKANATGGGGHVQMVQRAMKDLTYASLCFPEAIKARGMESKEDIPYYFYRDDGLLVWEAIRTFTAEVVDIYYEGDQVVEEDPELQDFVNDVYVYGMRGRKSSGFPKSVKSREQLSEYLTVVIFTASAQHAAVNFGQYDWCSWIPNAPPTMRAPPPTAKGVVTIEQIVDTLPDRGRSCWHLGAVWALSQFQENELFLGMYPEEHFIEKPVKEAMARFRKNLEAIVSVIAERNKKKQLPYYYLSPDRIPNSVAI

[34] = target: NAD-dependent protein deacetylase sirtuin-2 (Homo sapiens) (UniProt Q8IXJ6); experiment: Inhibition of human sirtuin 2 at 10 uM; set-up: scale not given: the % may be the effect or the level left
NAD-dependent protein deacetylase sirtuin-2 (Homo sapiens), sequence (Q8IXJ6 whole entry): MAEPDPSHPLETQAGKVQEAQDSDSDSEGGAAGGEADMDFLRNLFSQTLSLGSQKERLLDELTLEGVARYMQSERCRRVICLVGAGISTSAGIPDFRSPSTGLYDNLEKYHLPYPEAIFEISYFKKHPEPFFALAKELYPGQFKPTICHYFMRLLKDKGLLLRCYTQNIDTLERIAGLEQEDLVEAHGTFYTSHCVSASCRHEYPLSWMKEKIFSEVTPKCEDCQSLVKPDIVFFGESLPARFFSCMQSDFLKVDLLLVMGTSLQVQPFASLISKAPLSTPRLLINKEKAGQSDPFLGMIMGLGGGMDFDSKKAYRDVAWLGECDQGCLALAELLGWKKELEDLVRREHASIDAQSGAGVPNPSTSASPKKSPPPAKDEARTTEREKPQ

[35] = target: Prostaglandin E2 receptor EP2 subtype (Homo sapiens) (UniProt P43116); experiment: Binding affinity to human EP2 receptor at 10 uM by radioligand binding assay
Homo sapiens [36] = organism: Homo sapiens; experiment: Binding affinity to sodium channel site 2 (unknown origin) at 10 uM by radioligand binding assay

Question: Which results are given for `CCCCCCNC(=O)Oc1cccc(-c2ccc([C@H](C)C(=O)O)cc2F)c1`?
Answer: Activity [1]: 13.7%; Activity (Homo sapiens [2]): -10.7%; Activity [3]: -26.1%; Activity [4]: -13.6%; Activity [5]: -1.7%; Activity [6]: 80.1%; Activity [7]: 3.3%; Activity [8]: -1.4%; Activity [9]: 18.7%; Activity [10]: -1.4%; Activity [11]: 7%; Activity [12]: 13.5%; Activity [13]: -3%; Activity [14]: -18.6%; Activity [15]: -8.8%; Activity (Homo sapiens [16]): 17.1%; Activity [17]: 0%; Activity (Homo sapiens [18]): -10.6%; Activity (Homo sapiens [19]): -8.1%; Activity [20]: -5.8%; Activity [21]: -5%; Activity [22]: -8%; Activity [23]: -5.6%; Activity [24]: 0.8%; Activity [25]: -8.7%; Activity [26]: 18.8%; Activity [27]: -5.6%; Activity [28]: 0.9%; Activity (Homo sapiens [29]): -51.5%; Activity [30]: 38.1%; Activity [31]: 1.2%; Activity (Homo sapiens [32]): -2.7%; Activity [33]: 3.8%; Activity [34]: 1.3%; Activity [35]: 45%; Activity (Homo sapiens [36]): -0.5%
